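Values below derive from 48-hour exposures of cells grown in 96-well plates, with endpoints linearly interpolated between the two concentrations bracketing the appropriate inhibition level. TGI is the concentration that stops growth completely.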

The record followed here is PubChem BioAssay (NCI).

Among the test systems are ACHN renal; COLO 205 colon; HCC-2998 colon; HCT-15 colon; K-562 leukemia; M14 melanoma; MCF7 breast; NCI-H460 lung; OVCAR-8 ovarian; RPMI-8226 leukemia; SK-OV-3 ovarian; SW-620 colon; T-47D breast; TK-10 renal; U251 CNS; UACC-257 melanoma; UO-31 renal; SNB-75 CNS.
Common to all, as to assay: DTP human tumour cell line panel, 48 h

Broadly, the TGI is the concentration giving total growth inhibition. Higher therefore signals less potent growth arrest. Take `COc1cc(C2C3=C(COC3=O)OC(C)(C)Oc3cc4c(cc32)OCO4)cc(OC)c1O` (centres undefined): the TGI in the experiment with ACHN renal was over 100 µM; with COLO 205 colon it was 6.68 µM; in the experiment with HCC-2998 colon, 7.88 µM; with HCT-15 colon, over 100 µM; with K-562 leukemia, over 20.3 µM; in the experiment with M14 melanoma, over 100 µM. Moreover, the TGI in the experiment on MCF7 breast is over 100 µM; with NCI-H460 lung it was over 100 µM; in the experiment on OVCAR-8 ovarian, over 100 µM; in the experiment on RPMI-8226 leukemia it was over 100 µM; with SK-OV-3 ovarian, over 100 µM; with SW-620 colon it was over 31.3 µM. Further, the TGI with T-47D breast, with TK-10 renal, in the experiment with U251 CNS, with UACC-257 melanoma and in the experiment with UO-31 renal was over 100 µM each time.

With `O=C1CC(Br)c2c(Br)sc(Br)c21` (centres undefined), the TGI with ACHN renal was 31.6 µM; in the experiment with COLO 205 colon, 33.9 µM; in the experiment on HCT-15 colon, 34.6 µM; in the experiment with K-562 leukemia, 29.9 µM; in the experiment on M14 melanoma it was 29.2 µM; with MCF7 breast it was 32.4 µM. The TGI with NCI-H460 lung was 31.4 µM; with OVCAR-8 ovarian, 29.6 µM; in the experiment with RPMI-8226 leukemia it was 28 µM; in the experiment with SK-OV-3 ovarian, 55.9 µM; in the experiment on SNB-75 CNS, 42.4 µM; with SW-620 colon, 26.5 µM. Further, the TGI turned out to be 38.3 µM in the experiment with T-47D breast; 32.4 µM in the experiment with TK-10 renal; 31.1 µM in the experiment on U251 CNS; 29.1 µM in the experiment with UACC-257 melanoma; 34.7 µM in the experiment with UO-31 renal.

In the case of `O=[N+]([O-])/C(C(Cl)=C(Cl)Cl)=C1\Nc2ccc([N+](=O)[O-])cc2N1`, the concentration for total growth inhibition (TGI) with ACHN renal, in the experiment on COLO 205 colon, in the experiment with HCT-15 colon, in the experiment on K-562 leukemia, in the experiment on M14 melanoma and with MCF7 breast was over 100 µM throughout. Besides, the TGI in the experiment on NCI-H460 lung, in the experiment with RPMI-8226 leukemia, in the experiment with SK-OV-3 ovarian, in the experiment with SNB-75 CNS, in the experiment with T-47D breast and in the experiment on TK-10 renal was over 100 µM each time. In addition, the TGI with U251 CNS was over 100 µM; with UACC-257 melanoma, over 100 µM; with UO-31 renal, 27.5 µM.

Regarding `Cc1cccc(N/C(=C(/C(Cl)=C(Cl)Cl)[N+](=O)[O-])n2nnc3ccccc32)c1`, the TGI is 63.1 µM in the experiment with ACHN renal; 32.8 µM in the experiment on COLO 205 colon; over 100 µM with HCC-2998 colon; 42.3 µM in the experiment with HCT-15 colon; over 100 µM in the experiment on K-562 leukemia; 47.5 µM in the experiment with M14 melanoma. The TGI is 50 µM with MCF7 breast; 45.1 µM in the experiment with NCI-H460 lung; 31.1 µM in the experiment on OVCAR-8 ovarian; over 100 µM in the experiment on RPMI-8226 leukemia; 49.9 µM in the experiment on SK-OV-3 ovarian; 29.2 µM in the experiment with SW-620 colon. Besides, the concentration for total growth inhibition (TGI) was determined as 56 µM with T-47D breast, 26.9 µM in the experiment with U251 CNS, 49.3 µM with UACC-257 melanoma and 31 µM with UO-31 renal.

`CSC1=N/C(=C\c2ccc(C)cc2)C(=O)N1`: the TGI with ACHN renal, in the experiment on COLO 205 colon, in the experiment on HCC-2998 colon, in the experiment with HCT-15 colon, in the experiment with M14 melanoma and in the experiment with MCF7 breast was over 100 µM each time. For the same compound, the TGI with OVCAR-8 ovarian, in the experiment with RPMI-8226 leukemia, in the experiment on SK-OV-3 ovarian, with SNB-75 CNS, with SW-620 colon and in the experiment with T-47D breast was over 100 µM throughout. Also, the TGI with TK-10 renal, with U251 CNS, with UACC-257 melanoma and in the experiment on UO-31 renal was over 100 µM throughout.

For the compound `NC(CSS(=O)(=O)O)=NC1CC2CCC1C2` (centres undefined), the TGI with ACHN renal, in the experiment on COLO 205 colon, in the experiment on HCT-15 colon, with K-562 leukemia, in the experiment on M14 melanoma and with MCF7 breast was over 100 µM each time. Besides, the concentration for total growth inhibition (TGI) in the experiment with NCI-H460 lung, in the experiment on OVCAR-8 ovarian, in the experiment on RPMI-8226 leukemia, in the experiment on SK-OV-3 ovarian, in the experiment on SNB-75 CNS and in the experiment with SW-620 colon was over 100 µM in each case. Besides, the TGI with T-47D breast, in the experiment on TK-10 renal, with U251 CNS and in the experiment on UACC-257 melanoma was over 100 µM in each case.

With `COc1cc2c(cc1OCCCNC(=O)c1cc3ccccc3[nH]1)N=C[C@@H]1CCCN1C2=O`, the concentration for total growth inhibition (TGI) is over 100 µM in the experiment with ACHN renal; 10.5 µM in the experiment on HCC-2998 colon; over 26.9 µM with HCT-15 colon; over 100 µM in the experiment on K-562 leukemia; 1.15 µM in the experiment on M14 melanoma; over 48.1 µM in the experiment with MCF7 breast. Besides, the TGI in the experiment with NCI-H460 lung was over 100 µM; in the experiment with OVCAR-8 ovarian it was 3.64 µM; in the experiment on RPMI-8226 leukemia it was over 100 µM; with SK-OV-3 ovarian it was over 60.2 µM; in the experiment on SNB-75 CNS, 2.01 µM; in the experiment with SW-620 colon, over 100 µM. In addition, the TGI was over 47.5 µM in the experiment on TK-10 renal, over 33.6 µM in the experiment with U251 CNS, over 66.4 µM in the experiment on UACC-257 melanoma and over 100 µM in the experiment on UO-31 renal.

`Cc1c(N=Nc2ccccc2)c(-c2ccccc2)n(C2OC(CO)C(O)C(O)C2O)c(=S)c1C#N` (centres undefined): the TGI is 18.8 µM in the experiment with ACHN renal; 31.3 µM in the experiment on COLO 205 colon; 30.9 µM in the experiment with HCC-2998 colon; 25.5 µM in the experiment with HCT-15 colon; over 100 µM with K-562 leukemia; 19.3 µM in the experiment on M14 melanoma. Besides, the TGI in the experiment with MCF7 breast is 17.1 µM; in the experiment on NCI-H460 lung it was 97.6 µM; with OVCAR-8 ovarian, over 100 µM; in the experiment on RPMI-8226 leukemia, over 100 µM; in the experiment on SK-OV-3 ovarian it was 23 µM; with SNB-75 CNS, over 100 µM. Moreover, the TGI with SW-620 colon came out at 24.2 µM; with T-47D breast, 4.74 µM; with TK-10 renal, 26.9 µM; in the experiment on U251 CNS it was 17.7 µM; with UO-31 renal, 39.4 µM.

Take `Cc1c2c(cc3c1C(=O)C(=O)C([C@@H](C)CO)=C3O)C(C)(C)CCC2`: the TGI is over 100 µM with COLO 205 colon; over 100 µM in the experiment on HCT-15 colon; over 100 µM with K-562 leukemia; 67.5 µM in the experiment with M14 melanoma; over 100 µM in the experiment with OVCAR-8 ovarian; over 100 µM in the experiment on RPMI-8226 leukemia. The TGI with SK-OV-3 ovarian is over 100 µM; in the experiment with SNB-75 CNS, 86.5 µM; with SW-620 colon, over 100 µM; in the experiment on T-47D breast, over 100 µM; in the experiment with TK-10 renal, over 100 µM; in the experiment with U251 CNS it was 53.8 µM. The TGI in the experiment on UACC-257 melanoma was over 100 µM; in the experiment on UO-31 renal, 38.6 µM.
